Experimental data as given in patent US7629377B2, “Substituted naphthyl indole derivatives as inhibitors of plasminogen activator inhibitor type-1 (PAI-1)” (Wyeth, priority 2008, dated 2009).

Key:
[1] = molecular target: human PAI-1 (Homo sapiens, UniProt P05121); test: Assay for Determining IC50 of Inhibition of PAI-1 (Antibody Assay); assay type: biochemical; settings: for IC50: Antibody Assay (footnote a), active PAI-1 bound to tPA-coated plate, pH 7.5; for inhibition at 25 µM: 25 μM test compound, footnote a (Antibody Assay)
Chain of human PAI-1 (P05121 24-402): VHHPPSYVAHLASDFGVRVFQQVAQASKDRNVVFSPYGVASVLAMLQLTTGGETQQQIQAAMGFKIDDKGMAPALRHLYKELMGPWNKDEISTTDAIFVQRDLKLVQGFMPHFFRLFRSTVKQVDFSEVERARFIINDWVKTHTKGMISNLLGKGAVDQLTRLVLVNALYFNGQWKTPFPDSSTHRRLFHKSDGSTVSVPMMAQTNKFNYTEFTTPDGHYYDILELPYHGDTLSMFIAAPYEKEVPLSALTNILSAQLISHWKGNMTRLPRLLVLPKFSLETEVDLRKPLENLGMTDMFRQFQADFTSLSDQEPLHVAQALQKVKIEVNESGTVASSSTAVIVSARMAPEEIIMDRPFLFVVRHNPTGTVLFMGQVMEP
Method: Assay for Determining IC50 of Inhibition of PAI-1
This assay is based upon the non-SDS dissociable interaction between tPA and active PAI-1. Assay plates are initially coated with human tPA (10 μg/ml). Test compounds are dissolved in DMSO at 10 mM, then diluted with physiologic buffer (pH 7.5) to a final concentration of 1-50 μM. Test compounds are incubated with human PAI-1 (50 ng/ml) for 15 minutes at room temperature. The tPA-coated plate is washed with a solution of 0.05% Tween 20 and 0.1% BSA, then the plate is blocked with a solution of 3% BSA. An aliquot of the test compound/PAI-1 solution is then added to the tPA-coated plate, incubated at room temperature for 1 hour, and washed. Active PAI-1 bound to the plate is assessed by adding an aliquot of a 1:1000 dilution of the 33B8 monoclonal antibody against human PAI-1, and incubating the plate at room temperature for 1 hour (Molecular Innovations, Royal Oak, Mich. The plate is again washed, and a solution of goat anti-mouse IgG-alkaline phosphatase conjugate is added at a 1:50,000 dilution in goat serum. The plate is incubated 30 minutes at room temperature, washed, and a solution of alkaline phosphatase substrate is added. The plate is incubated 45 minutes at room temperature, and color development is determined at OD405 nm. The quantitation of active PAI-1 bound to tPA at varying concentrations of test compound is used to determine the IC50. Results are analyzed using a logarithmic best-fit equation. The assay sensitivity is 5 ng/ml of human PAI-1 as determined from a standard curve ranging from 0-100 ng/ml.

[2] = molecular target: T1, recombinant human plasminogen activator inhibitor-1 (PAI-1) (Homo sapiens, UniProt P05121); test: modification of the Primary Screen for PAI-1 Inhibition; assay type: biochemical; settings: modification of the Primary Screen (footnote b); residual tPA activity, Spectrozyme-tPA
T1 construct: purchased Molecular Innovations, Royal Oak, Mich
T1 sequence (P05121 24-402): as above
Method: Primary Screen for the PAI-1 Inhibition
Test compounds are dissolved in DMSO at a final concentration of 10 mM, then diluted […] in physiologic buffer. The inhibitory assay is initiated by the addition of test compound (1-100 μM final concentration, maximum DMSO concentration of 0.2%) in a pH 6.6 buffer containing 140 nM recombinant human plasminogen activator inhibitor-1 (PAI-1; Molecular Innovations, Royal Oak, Mich. Following a 1 hour incubation at room temperature, 70 nM of recombinant human tissue plasminogen activator (tPA) is added, and the combination of test compound, PAI-1 and tPA is incubated for an additional 30 minutes. Following the second incubation, Spectrozyme-tPA (American Diagnostica, Greenwich, Conn.), a chromogenic substrate for tPA, is added and absorbance read at 405 nm at 0 and 60 minutes. Relative PAI-1 inhibition is equal to the residual tPA activity in the presence of test compound and PAI-1. Control treatments include the complete inhibition of tPA by PAI-1 at the molar ratio employed (2:1), and the absence of any effect of the test compound on tPA alone.

| Compound | IC50 [1] | IC50 [2] | melting point | inhibition at 25 µM [1] |
| --- | --- | --- | --- | --- |
| CCCCCc1c(-c2ccc3cc(OCc4nnn[nH]4)ccc3c2)n(Cc2ccccc2)c2ccccc12 [Example 1, 1-Benzyl-3-pentyl-2-[6-(1H-tetraazol-5-ylmethoxy)-2-naphthyl]-1H-indole] | 9.85 µM |  |  |  |
| CCCCCc1c(-c2ccc3cc(OCc4nnn[nH]4)ccc3c2)n(C)c2ccccc12 [Example 3, 1-Methyl-3-pentyl-2-[6-(1H-tetraazol-5-ylmethoxy)-2-naphthyl]-1H-indole] | 16.2 µM |  | 120 to 122 °C |  |
| CCCCCc1c(-c2ccc3cc(OCc4nnn[nH]4)ccc3c2)n(C(C)=O)c2ccccc12 [Example 5, 1-Acetyl-3-pentyl-2-[6-(1H-tetraazol-5-ylmethoxy)-2-naphthyl]-1H-indole] |  | 9.2 µM | > 95 °C (dec.) |  |
| CCCCCc1c(-c2ccc3c(Br)c(OCc4nnn[nH]4)ccc3c2)n(C(C)=O)c2ccccc12 [Example 6, 1-Acetyl-2-[5-bromo-6-(1H-tetraazol-5-ylmethoxy)-2-naphthyl]-3-pentyl-1H-indole] |  |  | > 79 °C (dec.) | 16% |
| CCCCCc1c(-c2ccc3cc(OCc4nnn[nH]4)ccc3c2)n(Cc2ccc(C(C)(C)C)cc2)c2ccccc12 [Example 9, 1-(4-tert-Butylbenzyl)-3-pentyl-2-[6-(1H-tetraazol-5-ylmethoxy)-2-naphthyl]-1H-indole] | 24.9 µM |  | > 95 °C (dec.) |  |
| CCCCCc1c(-c2ccc3c(Br)c(OCC(=O)O)ccc3c2)n(C)c2ccccc12 [Example 11, {[1-Bromo-6-(1-methyl-3-pentyl-1H-indol-2-yl)-2-naphthyl]oxy}acetic acid] | 10.7 µM |  | > 73 °C (dec.) |  |

Next, values leading:

| IC50 [1] | IC50 [2] | melting point | inhibition at 25 µM [1] | Compound |
| --- | --- | --- | --- | --- |
|  | 8.8 µM | > 70 °C (dec.) |  | CCCCCc1c(-c2ccc3c(Br)c(OCc4nnn[nH]4)ccc3c2)n(Cc2ccccc2)c2ccccc12 [Example 2, 1-Benzyl-2-[5-bromo-6-(1H-tetraazol-5-ylmethoxy)-2-naphthyl]-3-pentyl-1H-indole] |
|  | 17.4 µM | > 125 °C (dec.) |  | CCCCCc1c(-c2ccc3c(Br)c(OCc4nnn[nH]4)ccc3c2)n(C)c2ccccc12 [Example 4, 2-[5-Bromo-6-(1H-tetraazol-5-ylmethoxy)-2-naphthyl]-1-methyl-3-pentyl-1H-indole] |
| 5.22 µM |  | > 100 °C (dec.) |  | CCCCCc1c(-c2ccc3cc(OCc4nnn[nH]4)ccc3c2)n(Cc2ccccc2C(F)(F)F)c2ccccc12 [Example 7, 3-Pentyl-2-[6-(1H-tetraazol-5-ylmethoxy)-2-naphthyl]-1-[2-(trifluoromethyl)benzyl]-1H-indole] |
|  |  | > 85 °C (dec.) | 57% | CCCCCc1c(-c2ccc3c(Br)c(OCc4nnn[nH]4)ccc3c2)n(Cc2ccccc2C(F)(F)F)c2ccccc12 [Example 8, 2-[5-Bromo-6-(1H-tetraazol-5-ylmethoxy)-2-naphthyl]-3-pentyl-1-[2-(trifluoromethyl)benzyl]-1H-indole] |
|  |  | > 90 °C (dec.) | 60% | CCCCCc1c(-c2ccc3c(Br)c(OCc4nnn[nH]4)ccc3c2)n(Cc2ccc(C(C)(C)C)cc2)c2ccccc12 [Example 10, 2-[5-Bromo-6-(1H-tetraazol-5-ylmethoxy)-2-naphthyl]-1-(4-tert-butylbenzyl)-3-pentyl-1H-indole] |
